In ChEMBL document CHEMBL5625264, “Identification of (4-chlorophenyl)(5-hydroxynaphtho[1,2-b]furan-3-yl)methanone as novel COX-2 inhibitor with analgesic profile” (Bioorg Med Chem Lett, 2024):
Activity calls are given as the source filed them. The rule behind the calls is not given here.

Legend:
Mus musculus [1] = assay: Analgesic activity in ip dosed CFA-induced ICR mouse model of chronic inflammatory pain pretreated with CFA for 3 days followed by compound administration and measured at 30 to 300 min by pain behavior test; type: functional, organism-based; conditions: time 30-300 min
Mus musculus [2] = assay: Analgesic activity in ip dosed formalin-induced ICR mouse model of acute inflammatory pain; type: functional, organism-based

O=C(c1ccc(Cl)cc1)c1coc2c1cc(O)c1ccccc12
Activity (Mus musculus [1]): Active | Activity (Mus musculus [2]): Active

O=C(Nc1ccccc1NC(=O)c1ccc2c(c1)OCO2)c1ccc2c(c1)OCO2
Activity (Mus musculus [1]): Active

NS(=O)(=O)c1ccc(-c2sncc2-c2ccc(F)cc2)cc1
Activity (Mus musculus [1]): Active | Activity (Mus musculus [2]): Active
